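Cells were grown in 96-well plates and exposed to each compound for 48 hours at five concentrations; endpoints were interpolated linearly between bracketing concentrations, or set to the highest concentration if not reached. At the GI50, growth is halved. At the TGI there is no net growth.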
Tests used:
Assay in all cases: NCI-60 cell line screen, 48 h
HOP-92 NSCLC = tested on: HOP-92 NSCLC
NCI-H23 lung = tested on: NCI-H23 lung
PC-3 prostate = tested on: PC-3 prostate
DU-145 prostate = tested on: DU-145 prostate
NCI/ADR-RES ovarian = tested on: NCI/ADR-RES ovarian
HS 578T breast = tested on: HS 578T breast
OVCAR-4 ovarian = tested on: OVCAR-4 ovarian
BT-549 breast = tested on: BT-549 breast
CAKI-1 renal = tested on: CAKI-1 renal
SR leukemia = tested on: SR leukemia
MDA-N = tested on: MDA-N
A498 renal = tested on: A498 renal

SMILES	GI50 (HOP-92 NSCLC) [µM]	TGI (HOP-92 NSCLC) [µM]	GI50 (NCI-H23 lung) [µM]	TGI (NCI-H23 lung) [µM]	GI50 (PC-3 prostate) [µM]	TGI (PC-3 prostate) [µM]	GI50 (DU-145 prostate) [µM]	TGI (DU-145 prostate) [µM]	GI50 (NCI/ADR-RES ovarian) [µM]	TGI (NCI/ADR-RES ovarian) [µM]	GI50 (HS 578T breast) [µM]	TGI (HS 578T breast) [µM]	GI50 (OVCAR-4 ovarian) [µM]	TGI (OVCAR-4 ovarian) [µM]	GI50 (BT-549 breast) [µM]	TGI (BT-549 breast) [µM]	TGI (CAKI-1 renal) [µM]	TGI (SR leukemia) [µM]	TGI (MDA-N) [µM]	TGI (A498 renal) [µM]
CO/N=C(\C)COc1ccc2c(=O)c(-c3ccccc3)coc2c1	17.2	43.9	26.4	89	34.5	> 100	23.1	52.7	14.5	50	63.1	> 100	40.4	> 100	18	38.8				
COc1cc(C2C(C(=O)O)=C(COC(C)=O)Oc3cc4c(cc32)OCO4)cc(OC)c1OC (configuration not stated)				> 100										> 100			> 100			
CCCCCCOP(=O)(OCCCCCC)C(NC(=O)OCC)(C(F)(F)F)C(F)(F)F		93.4				> 100		> 100		> 100		> 100				50.1	> 100	> 100	> 100	> 100
CNC(=O)N(C)COC														> 100			> 100	> 100		> 100
CCOC(=O)C(O)(NC(=O)c1ccccc1F)C(F)(F)F (configuration not stated)		> 100		> 100		> 100		> 100		> 100		> 100		> 100		> 100	> 100	> 100	> 100	
N#Cc1c(N)sc2c1-c1ccccc1OC2		> 100		> 100		> 100		> 100		> 100				88		> 100		47.9	67.1	> 100
CCc1ccc2nc(-c3ccc(O)cc3)sc2c1				34.1		29		28.9		32.9						31.1	26.4		36	34.2

From PubChem BioAssay (NCI)
